According to the Kinase Knowledgebase extract (Sharma et al. 2016):

Target: MAPK14 (UniProt Q16539)
Experiment: Inhibition of MAPK14 Kinase Activity

Chain of MAPK14 (Q16539 whole entry, looked up): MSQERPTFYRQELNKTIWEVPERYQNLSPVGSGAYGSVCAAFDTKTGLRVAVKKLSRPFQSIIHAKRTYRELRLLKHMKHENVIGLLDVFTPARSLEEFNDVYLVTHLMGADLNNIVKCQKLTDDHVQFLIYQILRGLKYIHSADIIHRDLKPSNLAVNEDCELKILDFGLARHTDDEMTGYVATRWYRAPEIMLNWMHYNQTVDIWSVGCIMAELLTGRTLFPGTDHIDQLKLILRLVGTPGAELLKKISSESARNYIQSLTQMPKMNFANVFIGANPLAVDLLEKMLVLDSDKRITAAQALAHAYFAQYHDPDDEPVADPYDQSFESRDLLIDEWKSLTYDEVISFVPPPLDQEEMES

Cc1c(F)cc(C(=O)NC2CC2)cc1-c1ccc(C(=O)NCc2ccc(F)cc2)cn1
IC50: < 10 µM

Cc1c(F)cc(C(=O)NC2CC2)cc1-c1ccc(C(=O)N2CCC(C)C2(C)C)cn1 (stereo not given)
IC50: < 10 µM

Cc1c(F)cc(C(=O)NC2CC2)cc1-c1ccc(C(=O)NCc2cccc(Cl)c2F)cn1
IC50: < 10 µM

Cc1c(F)cc(C(=O)NC2CC2)cc1-c1ccc(C(=O)NC2CC2(C)C)cn1 (stereo not given)
IC50: < 10 µM

Cc1ccc(CNC(=O)c2ccc(-c3cc(C(=O)NC4CC4)cc(F)c3C)nc2)o1
IC50: < 10 µM

Cc1c(F)cc(C(=O)NC2CC2)cc1-c1ccc(C(=O)NCc2cc(F)cc(F)c2F)cn1
IC50: < 10 µM

Cc1c(F)cc(C(=O)NC2CC2)cc1-c1ccc(C(=O)NCc2ccccc2Cl)cn1
IC50: < 10 µM

Cc1c(F)cc(C(=O)NC2CC2)cc1-c1ccc(C(=O)NCc2ccc(Cl)cc2)cn1
IC50: < 10 µM

Cc1ccc(C(=O)NC2CC2)cc1-c1ccc(C(=O)Nc2ccccc2CN2CCN(C)CC2)cn1
IC50: < 10 µM

Cc1c(F)cc(C(=O)NC2CC2)cc1-c1ccc(C(=O)NCc2cccc(Cl)c2)cn1
IC50: < 10 µM

Cc1c(F)cc(C(=O)NC2CC2)cc1-c1ccc(C(=O)NCc2ccc(F)cc2F)cn1
IC50: < 10 µM

CCCC(C)(C)NC(=O)c1ccc(-c2cc(C(=O)NC3CC3)cc(F)c2C)nc1
IC50: < 10 µM

Cc1c(F)cc(C(=O)NC2CC2)cc1-c1ccc(C(=O)N2CCC(C)CC2C)cn1 (stereo not given)
IC50: < 10 µM

Cc1c(F)cc(C(=O)NC2CC2)cc1-c1ccc(C(=O)NCc2ccc(F)c(F)c2)cn1
IC50: < 10 µM

CCC(C)(CC)NC(=O)c1ccc(-c2cc(C(=O)NC3CC3)cc(F)c2C)nc1
IC50: < 10 µM

CCC1(CC)CN(C(=O)c2ccc(-c3cc(C(=O)NC4CC4)cc(F)c3C)nc2)C1
IC50: < 10 µM

Cc1ccsc1CNC(=O)c1ccc(-c2cc(C(=O)NC3CC3)cc(F)c2C)nc1
IC50: < 10 µM

Cc1c(F)cc(C(=O)NC2CC2)cc1-c1ccc(C(=O)NCc2ccccc2)cn1
IC50: < 10 µM

Cc1c(F)cc(C(=O)NC2CC2)cc1-c1ccc(C(=O)NCc2cccc(C(F)(F)F)c2)cn1
IC50: < 10 µM

CCCNC(=O)c1ccc(-c2cc(C(=O)NC3CC3)cc(F)c2C)nc1
IC50: < 10 µM

Cc1c(F)cc(C(=O)NC2CC2)cc1-c1ccc(C(=O)N2CCCC(C)(C)C2)cn1
IC50: < 10 µM

Cc1c(F)cc(C(=O)NC2CC2)cc1-c1ccc(C(=O)N(C)C2CCCC2)cn1
IC50: < 10 µM

CCNC(=O)c1ccc(-c2cc(C(=O)NC3CC3)cc(F)c2C)nc1
IC50: < 10 µM

COc1cccc(CNC(=O)c2ccc(-c3cc(NC(=O)c4ccoc4)ccc3C)nc2)c1
IC50: < 10 µM

Cc1ccc(CNC(=O)c2ccc(-c3cc(C(=O)NC4CC4)cc(F)c3C)nc2)cc1F
IC50: < 10 µM

Cc1c(F)cc(C(=O)NC2CC2)cc1-c1ccc(C(=O)NCc2cc(Cl)ccc2F)cn1
IC50: < 10 µM

Cc1ccc(C(=O)Nc2cccc(-c3ccccn3)c2)cc1-c1ccc(C(=O)NCC2CC2)cn1
IC50: < 10 µM

Cc1ccc(C(=O)Nc2nncs2)cc1-c1ccc(C(=O)NCc2cccc(NS(C)(=O)=O)c2)cn1
IC50: < 10 µM

CC(C)=CCNC(=O)c1ccc(-c2cc(C(=O)NC3CC3)cc(F)c2C)nc1
IC50: < 10 µM

COc1cccc(CNC(=O)c2ccc(-c3cc(C(=O)NC4CC4)ccc3C)nc2)c1
IC50: < 10 µM

Cc1c(F)cc(C(=O)NC2CC2)cc1-c1ccc(C(=O)NCc2ccc(F)c(F)c2F)cn1
IC50: < 10 µM

Cc1ccc(C(=O)NCC2CC2)cc1-c1ccc(C(=O)Nc2ccccc2CN2CCN(C)CC2)cn1
IC50: < 10 µM

Cc1c(F)cc(C(=O)NC2CC2)cc1-c1ccc(C(=O)NCc2ccccc2C(F)(F)F)cn1
IC50: < 10 µM

Cc1c(F)cc(C(=O)NC2CC2)cc1-c1ccc(C(=O)NCC(C)C(F)(F)F)cn1 (stereo not given)
IC50: < 10 µM

Cc1c(F)cc(C(=O)NC2CC2)cc1-c1ccc(C(=O)NCc2cccc(F)c2)cn1
IC50: < 10 µM

Cc1ccc(C(=O)NCC2CC2)cc1-c1ccc(C(=O)NCc2cccc(NS(C)(=O)=O)c2)cn1
IC50: < 10 µM

Cc1ccc(C(=O)Nc2nncs2)cc1-c1ccc(C(=O)Nc2ccccc2CN2CCN(C)CC2)cn1
IC50: < 10 µM

COc1cccc(CNC(=O)c2ccc(-c3cc(C(=O)Nc4nccs4)ccc3C)nc2)c1
IC50: < 10 µM

Cc1ccc(C(=O)Nc2nccs2)cc1-c1ccc(C(=O)Nc2ccccc2CN2CCN(C)CC2)cn1
IC50: < 10 µM

COc1cccc(CNC(=O)c2ccc(-c3cc(NC(=O)c4ccsc4)ccc3C)nc2)c1
IC50: < 10 µM

CCC(C)(C)NC(=O)c1ccc(-c2cc(C(=O)NC3CC3)cc(F)c2C)nc1
IC50: < 10 µM

Cc1c(F)cc(C(=O)NC2CC2)cc1-c1ccc(C(=O)NCc2cc(F)c(F)c(F)c2)cn1
IC50: < 10 µM

Cc1c(F)cc(C(=O)NC2CC2)cc1-c1ccc(C(=O)NC(C)Cc2nccs2)cn1 (stereo not given)
IC50: < 10 µM

CCC(C)NC(=O)c1ccc(-c2cc(C(=O)NC3CC3)cc(F)c2C)nc1 (stereo not given)
IC50: < 10 µM

Cc1c(F)cc(C(=O)NC2CC2)cc1-c1ccc(C(=O)N(C)CCC2CCCC2)cn1
IC50: < 10 µM

CCN(C(=O)c1ccc(-c2cc(C(=O)NC3CC3)cc(F)c2C)nc1)C(C)C
IC50: < 10 µM

Cc1ccc(NC(=O)c2ccc(-c3cc(C(=O)NC4CC4)cc(F)c3C)nc2)cc1
IC50: < 10 µM

CCC1CCCN(C(=O)c2ccc(-c3cc(C(=O)NC4CC4)cc(F)c3C)nc2)C1 (stereo not given)
IC50: < 10 µM

Cc1c(F)cc(C(=O)NC2CC2)cc1-c1ccc(C(=O)NCCOC(C)(C)C)cn1
IC50: < 10 µM

Cc1ccc(C(=O)Nc2nccs2)cc1-c1ccc(C(=O)NCC2CC2)cn1
IC50: < 10 µM

Cc1c(F)cc(C(=O)NC2CC2)cc1-c1ccc(C(=O)N2CCCCC2C)cn1 (stereo not given)
IC50: < 10 µM

Cc1ccc(NC(=O)c2ccsc2)cc1-c1ccc(C(=O)NCC2CC2)cn1
IC50: < 10 µM

Cc1c(F)cc(C(=O)NC2CC2)cc1-c1ccc(C(=O)NC2CC2)cn1
IC50: < 10 µM

COc1ccc(NC(=O)c2ccc(-c3cc(NC(=O)c4ccoc4)ccc3C)nc2)cc1
IC50: < 10 µM

CCCC(O)C(C)(C)NC(=O)c1ccc(-c2cc(C(=O)NC3CC3)cc(F)c2C)nc1 (stereo not given)
IC50: < 10 µM

Cc1c(F)cc(C(=O)NC2CC2)cc1-c1ccc(C(=O)N(C)C(C)C)cn1
IC50: < 10 µM

Cc1c(F)cc(C(=O)NC2CC2)cc1-c1ccc(C(=O)N(C)C2(C)CCCC2)cn1
IC50: < 10 µM

Cc1c(F)cc(C(=O)NC2CC2)cc1-c1ccc(C(=O)NCc2ccc(Cl)cc2F)cn1
IC50: < 10 µM

Cc1ccc(NC(=O)c2ccnc(N3CCCC3)c2)cc1-c1ccc(C(=O)NCC2CC2)cn1
IC50: < 10 µM

Cc1c(F)cc(C(=O)NC2CC2)cc1-c1ccc(C(=O)NC(C)CC(C)C)cn1 (stereo not given)
IC50: < 10 µM

Cc1cccc(NC(=O)c2ccc(-c3cc(C(=O)NC4CC4)cc(F)c3C)nc2)c1
IC50: < 10 µM

Cc1c(F)cc(C(=O)NC2CC2)cc1-c1ccc(C(=O)NCC2CCCCC2)cn1
IC50: < 10 µM

Cc1c(F)cc(C(=O)NC2CC2)cc1-c1ccc(C(=O)NCc2cc(F)c(F)cc2F)cn1
IC50: < 10 µM

Cc1csc(CCNC(=O)c2ccc(-c3cc(C(=O)NC4CC4)cc(F)c3C)nc2)n1
IC50: < 10 µM

Cc1c(F)cc(C(=O)NC2CC2)cc1-c1ccc(C(=O)NCC(F)c2ccccc2)cn1 (stereo not given)
IC50: < 10 µM

COc1ccc(NC(=O)c2ccc(-c3cc(C(=O)NC4CC4)ccc3C)nc2)cc1
IC50: < 10 µM

Cc1c(F)cc(C(=O)NC2CC2)cc1-c1ccc(C(=O)N2CCC(C)CC2)cn1
IC50: < 10 µM

Cc1ccc(C(=O)Nc2nccs2)cc1-c1ccc(C(=O)NCc2cccc(NS(C)(=O)=O)c2)cn1
IC50: < 10 µM

Cc1c(F)cc(C(=O)NC2CC2)cc1-c1ccc(C(=O)NCc2ccc(F)c(Cl)c2)cn1
IC50: < 10 µM

Cc1c(F)cc(C(=O)NC2CC2)cc1-c1ccc(C(=O)N2CCCC(C)C2C)cn1 (stereo not given)
IC50: < 10 µM
